# Measured values taken from patent US20130028959A1, “Liposomes for Preventing the Spread of HIV” (Massachusetts Institute of Technology, priority 2009, published 2013).
# Assay: Surface charge of lipids used to make liposomes
# Assay type: physicochemical
# Conditions: lipid used to make liposomes
substance,measurement,value
Phosphatidylcholine [Phosphatidylcholine (PC)],Relative charge,No
